Source: EP0135714B1, “Sustained release compositions for biologically active materials” (MELAMINE CHEMICALS, INC., priority 1983, dated 1985)
Like-named read-outs stand apart in the source and are kept apart here.

What was measured:
[1] = tested on: Alfalfa seeds; assay: Pot test: germination of alfalfa seeds on treated soil; type: in vivo
Description: The effectiveness of these granular materials in preventing the germination of alfalfa seeds was used as an assay of the continued performance of the 2,4-D admixed with the melamine compositions. As long as significant quantities of 2,4-D are present, alfalfa seed will not germinate completely. When the alfalfa seeds receiving the treatment germinate comparably to seeds which received no treatment, the period of effectiveness of the 2,4-D has ended.
Alfalfa seeds (1 gram) were planted on the surface of sieved unsterile compost soil in 2½ in. x 2½ in. (6.3 cm x 6.3 cm) plastic pots. Each test pot stood in a plastic saucer in order to avoid contamination between pots. After introduction of the seeds, the pots were well watered from the top and covered with another plastic dish until germination was established. This avoided unnecessary drying out of the soil and maintained an intimate moist atmosphere for seed germination. All test pots were kept in a controlled temperature room at 70°F for the duration of the trial. After germination was established the covers were removed to avoid any restriction of seedling growth. Seeds and plants were monitored daily, watered evenly as necessary, and growth changes recorded.
A series of four pot treatments was set up as follows: • (a) control pots to which no chemical was applied; • (b) 2,4-D alone (applied at a rate equivalent to 22.7 kg of 2,4-D/ ha ); • (c) 2,4-D/melamine granules of Example 1 (applied at a rate equivalent to 22.7 kg of 2,4-D/ha ); and • (d) melamine granules (not containing 2,4-D) in an amount equal to that used in treatment (c).
The melamine/binder ratio was essentially the same in the granules used in treatments (c) and (d), the difference being in the presence or absence of 2,4-D. The granules were used by distributing them over the soil surfaces in the pots.
For each treatment, replicates of three pots were set up in four groups (A), (B), (C) and (D) so that alfalfa seeds could be planted on undisturbed soil for each of the following three weeks. All pots in each series were treated equally from the outset with respect to applied material, watering and light. The experiment was started when the treatments were applied to all of the pots by sprinkling the applied material on the surface of the soil, and pots (A) were planted. One week later, alfalfa seeds were planted in pots (B). Another week later, pots (C) were planted with alfalfa seeds and finally three weeks after application of the chemicals, pots (D) were planted with alfalfa seeds.
The pots in the four groups of pots A, B, C and D thus were treated at the same time, some pots receiving treatment (a): no chemical applied, to provide a control; some treatment (b): 2,4-D alone applied; and so on. […]

[2] = tested on: weeds; assay: Pot test with Douglas-fir seedlings: weed growth on the soil surface; type: in vivo
Description: (§1) The following granular herbicide formulations were used: • (a) 2,4-D 5%, melamine 71%, urea 24% • (b) 2,4-D 4.7%, melamine 88.1%, resin solids 7.2% • (c) 2,4-D/KL (a controlled release formulation of 2,4-D with kraft lignin 10%, melamine 72%, urea 18% • (d) Velpar® herbicide 5.35%, melamine 90.35%, resin solids 4.3% (V/MI) • (e) b and d, applied together • (f) control, no treatment • (g) technical 2,4-D treatment
(§2) Douglas-fir seedlings (2.0) were planted in 10" (25 cm) diameter pots. Each of the above five granule treatments was applied to three potted firs. Two control sets of potted seedlings had respectively no treatment, and an application of commercial 2,4-D, for comparison. In the application of the commercial 2,4-D, the fine powdered material was applied evenly to the soil surface, using the same 2,4-D material employed in making the granular formulations.
(§3) The 2,4-D was applied in all sets at the equivalent rate of 22.7 kg ai/ha and the Velpar® herbicide at 23.8 kg ai/ha (ai = active ingredient).
(§4) These sets were monitored for seedling height growth, growth quality of the seedling, and weed growth surrounding the seedling, represented as a % of soil surface.
There were no visible weeds present on the soil at the time of treatment. However, volunteer weed seeds were always present in the atmosphere and daily settled on the soil surface. […]

[3] = tested on: Douglas-fir seedlings; assay: Pot test with Douglas-fir seedlings: seedling height growth; type: in vivo; conditions: Fig. 4: 24 weeks after the treatment date
Description: as §1, §2, §3, §4
In the drawings, Figs. 1 and 3 compare the weed growth observed following soil treatment, using the pot-planted Douglas fir seedlings. […]

[4] = Rate of release from granules in dialysis tubing into a water bath; type: physicochemical; conditions: after 8-9 days
Protocol: Each of these formulations was made up into granules that were screened to fall within the size range of 0.84 to 1.41 mm.
In order to make measurements on the amount of herbicide released from each set of granules, a sample was taken of each. The sample was placed in dialysis tubing. The tubing was submerged in a covered container of distilled water containing 10 liters of water at 22°C. The solution was agitated and 10 ml. aliquots were removed at appropriate times.
The aliquots were subjected to analyses by an ultra-violet spectrophotometer at 203, 247 and 284 nm. respectively, for determination of the contents of melamine and herbicide.

[5] = pH 7, cited from earlier work
[6] = Table II (Example 3), soil treatment applied at 0 days, 22.7 kg of 2,4-D/ha

O=C(O)COc1ccc(Cl)cc1Cl [2,4-D, 2,4-dichlorophenoxyacetic acid]
mortality or aborted germination ([1]; Example 3, (A) pots, planted at 0 days): 100%
Extent of Germination (B) Pots Planted; 7 Days Later [1, 6]: 80%
Extent of Germination (C) Pots Planted; 14 Days Later [1, 6]: 90%
Extent of Germination (D) Pots Planted; 21 Days Later ([1]; Table II (Example 3), soil treatment applied at 0 days, 22.7 kg of 2,4-D/ha, listed as 2,4-D alone): germinating as well as the controls
weed control (in words) ([2]; 2,4-D 22.7 kg ai/ha, Velpar herbicide 23.8 kg ai/ha): initially gave good weed control
weed population occupied % of the soil surface ([2]; by fourteen weeks, 22.7 kg ai/ha): ~90%
mean height growth [3]: 28 cm.
height growth greater than the non-treated control ([3]; control 20 cm): 40%
herbicide entered the bath [4]: 100%

Nc1nc(O)nc(O)n1 [Ammelide]
Solubility (g/100g) ([5]; water at 20°C): less than 0.008 g/100g

Nc1nc(N)nc(O)n1 [Ammeline]
Solubility (g/100g) ([5]; water at 20°C): 0.008 g/100g

Nc1nc(N)nc(-c2ccccc2)n1 [Benzoguanamine]
Solubility (g/100g) ([5]; water, 22°C): 0.06 (22°C) g/100g

O=c1[nH]c(=O)[nH]c(=O)[nH]1 [Cyanuric Acid]
Solubility (g/100g) [5]: 0.27 g/100g

N#CNC(=N)N [Dicyandiamide]
Solubility (g/100g) [5]: 2.26 (at 13°C) g/100g

Nc1nc(N)nc(N)n1.O=[N+]([O-])O [Melamine Nitrate]
Solubility (g/100g) [5]: 0.85 g/100g

Nc1nc(N)nc(N)n1 [Melamine]
Solubility (g/100g) ([5]; water at 20°C): 0.50 g/100g

NC(N)=O [Urea]
Solubility (g/100g) ([5]; water, at 25°C): 119.3 (at 25°C) g/100g

Potassium Acid Sulfate
Solubility (g/100g) [5]: 51.4 g/100g
